Source: ChEMBL document CHEMBL1142495, “Novel D3 selective dopaminergics incorporating enyne units as nonaromatic catechol bioisosteres: synthesis, bioactivity, and mutagenesis studies” (J Med Chem, 2008)
pEC50, pKi: −log10 of the molar value.

Experiments:
[1] = biological target: T1, D(2) dopamine receptor (Homo sapiens, UniProt P14416); assay: Displacement of [3H]spiperone from human D2long receptor expressed in CHO cells; type: cell-based
[2] = biological target: T2, D(3) dopamine receptor (Homo sapiens, UniProt P35462); assay: biochemical
T2 sequence (P35462 whole entry): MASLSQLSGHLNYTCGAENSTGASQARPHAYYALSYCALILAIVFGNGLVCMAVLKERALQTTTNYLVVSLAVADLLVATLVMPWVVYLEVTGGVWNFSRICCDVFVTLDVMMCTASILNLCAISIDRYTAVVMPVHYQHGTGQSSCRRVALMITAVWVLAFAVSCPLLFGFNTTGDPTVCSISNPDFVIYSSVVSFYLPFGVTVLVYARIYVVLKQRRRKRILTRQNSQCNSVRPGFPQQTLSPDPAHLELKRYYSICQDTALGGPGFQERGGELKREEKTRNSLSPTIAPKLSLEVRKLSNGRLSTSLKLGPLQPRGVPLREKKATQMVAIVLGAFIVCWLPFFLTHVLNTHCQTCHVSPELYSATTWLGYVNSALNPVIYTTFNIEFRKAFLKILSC
Description: Displacement of [3H]spiperone from human D3 receptor expressed in CHO cells

[3] = biological target: D(1A) dopamine receptor (Sus scrofa, UniProt P50130); assay: Displacement of [3H]SCH23390 from D1 receptor in pig striatal membrane; type: cell membranes, Striatum
Chain of D(1A) dopamine receptor (P50130 whole entry): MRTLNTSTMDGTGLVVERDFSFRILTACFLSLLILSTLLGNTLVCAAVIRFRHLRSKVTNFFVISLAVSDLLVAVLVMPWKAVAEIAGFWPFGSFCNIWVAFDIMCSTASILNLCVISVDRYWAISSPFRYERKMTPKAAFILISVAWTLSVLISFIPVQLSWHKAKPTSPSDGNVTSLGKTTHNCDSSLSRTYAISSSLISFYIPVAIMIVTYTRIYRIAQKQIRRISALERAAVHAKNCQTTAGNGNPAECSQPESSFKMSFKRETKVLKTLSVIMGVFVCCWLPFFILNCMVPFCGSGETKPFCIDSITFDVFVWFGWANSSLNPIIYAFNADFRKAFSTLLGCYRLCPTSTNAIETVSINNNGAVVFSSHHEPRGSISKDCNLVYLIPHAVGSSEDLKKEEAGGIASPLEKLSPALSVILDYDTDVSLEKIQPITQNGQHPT

[4] = Displacement of [3H]ketanserin from 5HT2 receptor in pig cerebral cortex homogenate
[5] = Displacement of [3H]prazosin from adrenergic alpha1 receptor in pig cerebral cortex homogenate
[6] = Displacement of [3H]WAY100635 from 5HT1A receptor in pig cerebral cortex homogenate
[7] = biological target: T3, D(4) dopamine receptor (Homo sapiens, UniProt P21917); assay: Displacement of [3H]spiperone from human D4 receptor expressed in CHO cells; type: cell-based
T3 sequence (P21917 whole entry): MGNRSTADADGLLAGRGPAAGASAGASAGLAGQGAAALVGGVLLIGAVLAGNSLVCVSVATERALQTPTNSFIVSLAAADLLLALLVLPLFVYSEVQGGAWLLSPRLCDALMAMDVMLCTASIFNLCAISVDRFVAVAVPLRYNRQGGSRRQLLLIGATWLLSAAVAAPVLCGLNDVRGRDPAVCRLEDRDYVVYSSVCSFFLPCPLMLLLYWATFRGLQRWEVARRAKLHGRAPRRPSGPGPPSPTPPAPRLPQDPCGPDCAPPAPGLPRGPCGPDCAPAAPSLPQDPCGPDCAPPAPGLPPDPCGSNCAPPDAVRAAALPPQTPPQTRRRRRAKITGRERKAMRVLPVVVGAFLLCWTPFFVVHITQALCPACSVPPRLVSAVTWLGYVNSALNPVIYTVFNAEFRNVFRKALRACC

[8] = biological target: T1, D(2) dopamine receptor; assay: Displacement of [3H]spiperone from human D2short receptor expressed in CHO cells; type: cell-based
[9] = biological target: D(3) dopamine receptor (Homo sapiens, UniProt P35462, D110E); assay: biochemical
Chain of D(3) dopamine receptor (Homo sapiens, UniProt P35462, D110E) (P35462 as listed by the source D110E): as the sequence (P35462 whole entry) above, with G9S, D110E counted along it
Description: Displacement of [3H]spiperone from human D3 D3.32E mutant receptor expressed in human HEK293 cells

[10] = biological target: T2, D(3) dopamine receptor; assay: biochemical; remark: listed apart in the source
Description: Displacement of [3H]spiperone from human wild type D3 receptor expressed in human HEK293 cells

[11] = biological target: T2, D(3) dopamine receptor
Description: Intrinsic activity at human D3 receptor expressed in CHO dhfr- cells by [3H]thymidine incorporation assay

[12] = biological target: D(3) dopamine receptor (Homo sapiens, UniProt P35462, F345W); assay: biochemical
Chain of D(3) dopamine receptor (Homo sapiens, UniProt P35462, F345W) (P35462 as listed by the source F345W): as the sequence (P35462 whole entry) above, with G9S, F345W counted along it
Description: Displacement of [3H]spiperone from human D3 F6.51W mutant receptor expressed in human HEK293 cells

[13] = biological target: T2, D(3) dopamine receptor; remark: listed apart in the source
Description: Intrinsic activity at human D3 receptor expressed in CHO dhfr- cells assessed as inhibition of forskolin-induced cAMP release

T1 sequence (P14416 whole entry): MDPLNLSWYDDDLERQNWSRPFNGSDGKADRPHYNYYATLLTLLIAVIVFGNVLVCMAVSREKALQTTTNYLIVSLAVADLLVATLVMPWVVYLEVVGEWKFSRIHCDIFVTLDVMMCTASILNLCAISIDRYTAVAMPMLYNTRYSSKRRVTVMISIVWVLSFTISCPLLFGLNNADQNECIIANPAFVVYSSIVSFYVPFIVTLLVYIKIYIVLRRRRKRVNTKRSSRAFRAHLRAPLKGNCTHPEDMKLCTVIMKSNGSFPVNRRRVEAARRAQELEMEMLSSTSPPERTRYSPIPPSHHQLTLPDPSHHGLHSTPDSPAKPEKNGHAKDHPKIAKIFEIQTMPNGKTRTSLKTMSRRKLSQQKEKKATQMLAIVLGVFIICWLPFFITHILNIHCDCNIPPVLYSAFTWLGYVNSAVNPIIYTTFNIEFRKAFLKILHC

SMILES	pKi [1]	pKi [2]	pKi [3]	pKi [4]	pKi [5]	pKi [6]	pKi [7]	pKi [8]	pKi [9]	pKi [10]	pEC50 [11]	pKi [12]	pEC50 [13]
CCCN(CCC)CCCCNC(=O)c1ccc(-c2ccccc2)cc1	5.01	6.02	5.17	6.10	5.62	5.55	5.85	5.06	–	–	–	–	–
CCCN(CCCCn1cc(-c2ccc(-c3ccccc3)cc2)nn1)C1CC=C(C#C[Si](C)(C)C)CC1 (configuration not stated)	6.16	7.89	5.24	5.08	5.72	5.16	5.74	6.17	–	–	–	–	–
CCCN(CCCCn1cc(-c2ccc(-c3ccccc3)cc2)nn1)C1CC=C(C#Cc2ccccc2)CC1 (configuration not stated)	6.68	6.82	5.77	5.24	6.05	5.23	5.96	6.74	–	–	–	–	–
C#CC1=CCC(N(CCC)CCCCNC(=O)c2ccc(-c3ccccc3)cc2)CC1 (configuration not stated)	–	–	5.54	6.34	6.29	6.64	8.37	–	–	–	–	–	–
CCCN(CCCCNC(=O)c1ccc(-c2ccccc2)cc1)C1CCCCC1	5.33	6.85	5.34	6.05	5.96	5.92	6.17	5.20	–	–	–	–	–
CCCNCCCCNC(=O)c1ccc(-c2ccccc2)cc1	4.68	4.96	5.14	6.07	5.60	5.02	5.21	< 4.00	–	–	–	–	–
C#CC1=CCC(N(CCC)CCCCn2cc(-c3ccc(-c4ccccc4)cc3)nn2)CC1 (configuration not stated)	6.21	8.89	5.02	5.57	5.36	5.60	6.72	6.77	5.82	8.60	8.59	7.48	8.51
C#CC1=CCC(N(CCC)CCC)CC1 (configuration not stated)	–	–	–	–	–	–	–	–	< 5.00	6.72	8.36	5.24	8.11
CC#CC1=CCC(N(CCC)CCCCn2cc(C)nn2)CC1 (configuration not stated)	5.39	6.55	< 4.00	4.82	5.06	5.74	7.00	5.68	–	–	–	–	–
CCCN(CCCCNC(=O)c1ccc(-c2ccccc2)cc1)C1CC=C(C#Cc2ccccc2)CC1 (configuration not stated)	5.26	6.52	4.89	5.08	5.34	5.24	5.51	5.33	–	–	–	–	–
CCCN(CCCCNC(=O)c1ccc(-c2ccccc2)cc1)C1CC=C(C#C[Si](C)(C)C)CC1 (configuration not stated)	6.66	8.36	5.42	5.85	5.66	6.18	7.16	6.44	–	–	–	–	–
